# Test results taken from PMC11816975, “Bioactive Peptides from Milk Proteins with Antioxidant, Anti-Inflammatory, and Antihypertensive Activities” (Foods, 2025).
# Where no end group is shown, it is not given here.
# Experiments:
# [1] = DPPH• radical scavenging assay; details: relative concentration to reduce 50% of initial DPPH•; mean ± SD, n = 3
# Experimental: The free radical-scavenger activity was determined by the DPPH^• assay, according to Oliveira et al.. Briefly, in a 96 well-plate, 19.4 µL of aqueous solutions of the peptides at different concentrations (100–0.1 µg/mL) was added per well. Then, 175 µL of an ethanolic solution of 2,2-diphenyl-1-picrylhydrazyl radical (DPPH^•, Merck) was added to the wells ([…]—90 µM for final concentration in the experiment). The absorbance was read at 515 nm (Multiskan SkyHigh multiplate reader, Thermo Fisher Scientific) in kinetic mode for 60 min and at room temperature. The percentage of remaining DPPH^• was plotted against the peptides’ concentrations and the amount of test compounds necessary to decrease by 50% the initial concentration of DPPH (RIC50) was calculated (GraphPad Prism 9.4.0, GraphPad Software). Quercetin (100–0.1 µg/mL in ethanol) was used as a positive control.
# The DPPH^• radical scavenging activity determines the ability of an antiradical compound to neutralize DPPH^• radical to its reduced form (DPPH-H) and is usually expressed as the concentration of the compound required to reduce the DPPH^• radical by 50% (IC₅₀). […]
# [2] = FRAP (ferric reducing antioxidant power) assay
# Experimental: The antioxidant power of a given compound is not limited to its radical-scavenging activity. In fact, the ferric reducing antioxidant power (FRAP) assay, is a well-established test to measure a compound’s ability to act as a reductant in a colorimetric redox reaction, where ferric (Fe^3+) ions are reduced to the ferrous (Fe^2+) state in the acidic medium.
# The ferric-reducing antioxidant power (FRAP) was determined using a FRAP kit (Sigma-Aldrich) with minor modifications to the manufacturer’s instructions. Briefly, in a 96-well plate, 5 µL of peptides’ aqueous solutions at different concentrations (50–0.05 µg/mL) was added per well. Then, 95 µL of the reaction cocktail (FRAP assay buffer, FeCl3 solution, and FRAP probe) was added to each well. The absorbance was measured at 594 nm in kinetic mode (Multiskan SkyHigh, Thermo Fisher Scientific) for 60 min, at 37 °C. A ferrous standard curve was plotted with Ferrous ammonium sulfate at 0, 4, 8, 12, 16, and 20 nmol/well, and the absorbances of each sample were compared to the standard curve. Quercetin (100–0.1 µg/mL in ethanol) was used as a positive control. All measurements were performed in three independent experiments. Data are shown as mean ± SD.
# in vitro = assay type: cell-based, murine; details: for IC50 at 24 h: mouse
# Experimental: RAW 264.7 (ATCC TIB-71) murine macrophage-like cells were cultured in high-glucose Dulbecco’s modified Eagle’s medium (DMEM, Sigma-Aldrich) supplemented with 10% fetal bovine serum (FBS, Corning) and 1% penicillin/streptomycin (Corning). Cells were grown under standard culture conditions in a 5% CO2 incubator at 37 °C (MCO-170AC incubator; PHC Corporation, Tokyo, Japan), and were sub-cultured every two or three days when it was noticed that the cells had reached around 80% confluence. The assays were performed in cell passages from passages 9 to 21 to avoid phenotypic and genetic instability. Unless otherwise stated, all treatments were carried out with DMEM supplemented with 1% penicillin/streptomycin only (serum-free conditions). The cytotoxicity of the peptides towards RAW 264.7 cells was evaluated using the colorimetric 3-(4,5-dimethylthiazol-2-yl)-2,5-diphenyl tetrazolium bromide (MTT) assay. The assay was performed according to Mosmann, with a few modifications. Briefly, cells were seeded in a 96-well plate at a density of 2.5 × 10^3 cells per well and incubated for 24 h (5% CO2, 37 °C). After the incubation period, the medium was removed and replaced with different concentrations of the peptides’ aqueous solutions diluted in fresh FBS-free DMEM to the final concentrations of 1–0.005 mg/mL in each well. Following another 24 h incubation period, 10 µL of a 5 mg/mL stock solution of 3-(4,5-Dimethylthiazol-2-yl)-2,5-diphenyltetrazolium bromide (MTT; Alfa Aesar) was added to each well, and the plate was incubated for 3 h (5% CO2, 37 °C). Dimethyl sulfoxide (DMSO, Thermo Fisher Scientific) was used to dissolve the formazan crystals formed by the intracellular reduction of MTT. The absorbance was measured at a dual wavelength of 570/690 nm using a Multiskan SkyHigh microplate reader (Thermo Fisher Scientific). The percentage of viable cells was calculated and the concentration of each peptide able to inhibit 50% of cell viability (IC50) was determined. The experiments were carried out in three independent assays, and the results are shown as mean ± standard deviation (SD).
# [3] = tested on: O2•− production in LPS-stimulated RAW 264.7 cells; assay: Intracellular superoxide production (NBT assay) in LPS-stimulated macrophages; assay type: cell-based, murine; details: at 10 µg/mL
# Experimental: Considering the link between oxidative stress and inflammation, both the antioxidant and the anti-inflammatory potential of the selected peptides was determined in cellulo using macrophage-like cells (RAW 264.7 cell line) stimulated with lypopolysaccharides (LPSs) from Escherichia coli. […] In other words, RAW 264.7 cells are activated by foreign stimuli like, e.g., exposure to LPSs. This activation is initiated by the binding of LPSs to cell membrane receptors, which triggers signaling pathways that will result in the generation of proinflammatory mediators (e.g., nitric oxide) and cytokines such as interleukin (IL)-6, IL-8, tumor necrosis factor-alpha (TNF)-α [41, 42]. Since proinflammatory mediators are held in several metabolic pathways, including the production of reactive oxygen species (ROS), e.g., the radical-anion superoxide (O2^•−), LPS exposure also leads to oxidative stress. […]
# The potential inhibitory effect of the peptides on superoxide radical (O2^−) by RAW 264.7 cells activated by LPS (1 µg/mL) was evaluated according to Mitra et al. with some modifications. […] The absorbance was measured in a microplate reader at a dual wavelength of 620/700 nm. […] The experiments were performed in three independent assays and the results were expressed as a percentage of O2^- production. […]
# [4] = tested on: NO production in LPS-stimulated RAW 264.7 cells; assay: Griess assay (nitric oxide production) in LPS-stimulated macrophages; assay type: cell-based, murine; details: at 10 µg/mL
# Description: The Griess assay is a classical indirect method to measure the production of nitric oxide through the quantification of nitrite anions. As previously mentioned, NO is an inflammatory biomarker that can be produced when LPS-activated macrophages produce proinflammatory mediators and cytokines, which in turn elicit the production of reactive species like ROS and the expression/activity of relevant enzymes, including the nitric oxide synthase (NOS).
# The Nitrite Assay Kit (Griess Reagent, Sigma-Aldrich) was used to determine the influence of peptide treatments on nitric oxide production by RAW 264.7 cells activated by LPS (1 µg/mL). To this end, peptide solutions at different concentrations (50–3.12 µg/mL—serial dilution) in an FBS-free medium were used. Briefly, 7 × 10^4 RAW 264.7 cells per well were seeded in a 96-well plate and incubated for 24 h (5% CO2, 37 °C). On the next day, the medium was removed and replaced with different concentrations of the peptides. After another 24 h incubation period (5% CO2, 37 °C), 50 µL of culture supernatant was transferred to a 96-well plate. […] The absorbance was measured at 540 nm using a microplate reader (Multiskan SkyHigh, Thermo Scientific) A nitrite standard curve was plotted with nitrite standards at 0, 2, 4, 8, and 10 nmol/well, and the absorbances of each sample were compared to the standard curve. […]
# ACE-1 enzyme = ACE-1 enzyme (Homo sapiens, UniProt P12821); assay: ACE-1 inhibition assay (colorimetric kit)
# Chain of ACE-1 enzyme (P12821 30-1306): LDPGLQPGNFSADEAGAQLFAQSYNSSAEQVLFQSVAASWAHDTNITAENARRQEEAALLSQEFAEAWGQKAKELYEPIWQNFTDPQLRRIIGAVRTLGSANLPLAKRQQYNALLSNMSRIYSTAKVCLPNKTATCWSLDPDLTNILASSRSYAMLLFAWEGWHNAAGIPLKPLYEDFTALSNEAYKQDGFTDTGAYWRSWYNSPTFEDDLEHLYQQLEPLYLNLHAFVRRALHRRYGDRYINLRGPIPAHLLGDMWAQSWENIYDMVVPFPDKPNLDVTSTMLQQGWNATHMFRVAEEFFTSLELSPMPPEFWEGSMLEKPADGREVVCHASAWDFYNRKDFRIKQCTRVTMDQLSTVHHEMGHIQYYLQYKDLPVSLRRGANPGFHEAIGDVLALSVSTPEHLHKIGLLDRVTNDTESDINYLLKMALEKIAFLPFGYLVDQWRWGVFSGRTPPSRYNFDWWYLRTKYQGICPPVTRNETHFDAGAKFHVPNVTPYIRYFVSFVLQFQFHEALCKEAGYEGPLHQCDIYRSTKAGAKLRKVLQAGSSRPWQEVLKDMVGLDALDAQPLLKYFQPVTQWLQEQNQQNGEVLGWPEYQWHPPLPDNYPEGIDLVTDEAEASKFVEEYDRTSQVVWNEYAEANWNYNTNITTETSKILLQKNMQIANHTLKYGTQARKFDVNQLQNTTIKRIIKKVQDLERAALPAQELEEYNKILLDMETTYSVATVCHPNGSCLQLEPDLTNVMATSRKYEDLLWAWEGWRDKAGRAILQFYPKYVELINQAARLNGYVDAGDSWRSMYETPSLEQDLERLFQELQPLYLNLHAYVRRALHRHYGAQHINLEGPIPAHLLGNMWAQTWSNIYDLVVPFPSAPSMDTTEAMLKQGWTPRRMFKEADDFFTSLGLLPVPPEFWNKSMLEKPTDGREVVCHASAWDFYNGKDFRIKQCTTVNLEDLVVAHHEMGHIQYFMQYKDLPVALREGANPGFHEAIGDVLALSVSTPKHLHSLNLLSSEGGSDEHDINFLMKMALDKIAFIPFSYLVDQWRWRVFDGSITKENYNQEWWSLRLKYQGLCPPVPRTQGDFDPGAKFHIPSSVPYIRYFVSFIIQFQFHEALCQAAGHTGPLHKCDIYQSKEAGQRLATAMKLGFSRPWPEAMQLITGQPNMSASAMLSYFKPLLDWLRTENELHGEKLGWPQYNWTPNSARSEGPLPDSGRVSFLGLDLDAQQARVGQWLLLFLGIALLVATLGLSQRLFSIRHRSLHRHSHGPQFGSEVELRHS
# Experimental: Therefore, the ability of the LF-derived peptides to inhibit ACE-1 was evaluated.
# The activity of the ACE-1 enzyme was measured using a colorimetric ACE-1 Inhibitor Screening Kit (Abcam) with minor modifications to the manufacturer’s instructions. Briefly, in a 96-well plate, 12.5 µL of peptide’s aqueous solutions at different concentrations (100–0.1 µg/mL) were added per well. Then, 20 µL of diluted ACE-1 enzyme solution was added to each well. The total volume of each well was adjusted to 100 µL and the plate was incubated at 37 °C for 15 min. After the incubation period, 25 µL of the reaction mixture (substrate mixture and ACE-1 assay buffer) were added to the samples, and the absorbance was read in kinetic mode at 345 nm for 60 min at 37 °C (Multiskan SkyHigh, Thermo Scientific). Captopril (22 ng/mL) was used as the positive control. The reaction inhibition percentage was calculated and the IC50 was determined (GraphPad Prism 9.4.0, GraphPad Software). The experiments were carried out in three independent assays and the results are expressed as mean ± SD.
# ACE-1 = details: cited from earlier work
# [5] = tested on: spontaneously hypertensive rats; design: method as in PMID 16830788; details: cited from earlier work
compound,measurement,setting,value
O=c1c(O)c(-c2ccc(O)c(O)c2)oc2cc(O)cc(O)c12 [Quercetin],DPPH Radical Scavenging Activity (RIC50 mol/mol DPPH),[1],0.09 ± 0.02 mol/mol DPPH
same,FRAP (mM Ferrous Equivalents),[2]; 0.05 µg/mL,0.85 ± 0.25 mM Ferrous Equivalents
same,FRAP (mM Ferrous Equivalents),[2]; 0.5 µg/mL,1.40 ± 0.23 mM Ferrous Equivalents
same,FRAP (mM Ferrous Equivalents),[2]; 5 µg/mL,8.02 ± 0.57 mM Ferrous Equivalents
same,FRAP (mM Ferrous Equivalents),[2]; 50 µg/mL,16.09 ± 0.87 mM Ferrous Equivalents
same,IC50 at 24 h,in vitro,65 ± 2 µg/mL
same,reduction of O2•− production compared to the control (LPS +),[3],about 25%
same,NO levels in LPS-activated cells,[4],significantly reduce NO levels
"CSCC[C@H](NC(=O)[C@H](CCCNC(=N)N)NC(=O)[C@H](Cc1c[nH]c2ccccc12)NC(=O)[C@H](CCC(N)=O)NC(=O)[C@H](Cc1c[nH]c2ccccc12)NC(=O)[C@H](CCCNC(=N)N)NC(=O)[C@H](CCCNC(=N)N)NC(=O)[C@H](CS)NC(=O)[C@H](CCCCN)NC(=O)[C@@H](N)Cc1ccccc1)C(=O)N[C@@H](CCCCN)C(=O)N[C@@H](CCCCN)C(=O)N[C@@H](CC(C)C)C(=O)NCC(=O)N[C@@H](C)C(N)=O [bLF-17-31, FKCRRWQWRMKKLGA-NH2]",IC50,in vitro,135 ± 6 µg/mL
same,IC50,ACE-1 enzyme,31.6 µM
"AKCAKFQRNMKKVRG-NH2 [aLF-17-31, AKCAKFQRNMKKVRG-NH2]",IC50,ACE-1 enzyme,31.2 µM
"APRKNVRWCTI-NH2 [bLF-1-11, APRKNVRWCTI-NH2]",IC50 at 24 h,in vitro,290 ± 5 µg/mL
"GRRRRSVQWCA-NH2 [rhLF-1-11, GRRRRSVQWCA-NH2]",IC50 at 24 h,in vitro,355 ± 12 µg/mL
same,IC50,ACE-1 enzyme,57.5 µM
LRPVAA,ACE-1 inhibition in vitro,ACE-1,effective in inhibiting ACE-1 in vitro
same,blood pressure,[5],reducing blood pressure
"WKLLSKAQEKFGKNKSR-NH2 [bLF-268-284, WKLLSKAQEKFGKNKSR-NH2]",IC50,ACE-1 enzyme,> 48.8 µM
"WNLLRQAQEKFGKDKSP-NH2 [nhLF-268-284, WNLLRQAQEKFGKDKSP-NH2]",IC50,ACE-1 enzyme,25.6 µM
